# USRE42013E1, “Macrocyclic modulators of the ghrelin receptor” (Tranzyme Pharma Inc., priority 2003, dated 2010)
# Read-outs that look alike come from different tables or passages of the source.
# Tests used:
# [1] = molecular target: T1, human ghrelin receptor (hGHS-R1a) (Homo sapiens, UniProt Q92847); conditions: Table 4; functional (agonist) activity at human ghrelin receptor; TFA salts unless otherwise noted
# Description: (§1) B. Aequorin Functional Assay (Ghrelin Receptor)
# (§2) This cell line is typically constructed by transfection of the human ghrelin receptor into CHO-K1 cells co-expressing Gα16 and the mitochondrially targeted Aequorin (Ref #ES-WT-A5). • 1. […] Assay buffer: DMEM (Dulbecco's Modified Eagles Medium) containing 0.1% BSA (bovine serum albumin; pH 7.0). • 3. Coelenterazine (Molecular Probes, Leiden, The Netherlands). Final test concentrations (N=8) for compounds of the invention: 10, 1, 0.3, 0.1, 0.03, 0.01, 0.003, 0.001 μM. Compound Handling
# (§3) Assay plates were then prepared by appropriate dilution in DMEM medium containing 0.1% BSA. Under these conditions, the maximal final DMSO concentration in the assay was <0.6%.
# (§4) AequoScreen™ cells were collected from culture plates with Ca^2+ and Mg^2+-free phosphate buffered saline (PBS) supplemented with 5 mM EDTA, pelleted for 2 min at 1000×g, re-suspended in DMEM—Ham's F12 containing 0.1% BSA at a density of 5×10^6 cells/mL, and incubated O/N at rt in the presence of 5 μM coelenterazinc. After loading, cells were diluted with assay buffer to a concentration of 5×10^5 cells/mL.
# (§5) For agonist testing, 50 μL of the cell suspension was mixed with 50 μL of the appropriate concentration of test compound or ghrelin (reference agonist) in 96-well plates (duplicate samples). Ghrelin (reference agonist) was tested at several concentrations concurrently with the test compounds in order to validate the experiment. The emission of light resulting from receptor activation in response to ghrelin or test compounds was recorded using the Hamamatsu FDSS 6000 reader (Hamamatsu Photonics K.K., Japan).
# Analysis and Expression of Results
# (§6) Results were expressed as Relative Light Units (RLU). […] EC50, Hill slope and % Emax values are reported.
# (§7) Key Aspects of Method • 1. Assay performed on CHO-K1 cells expressing the transfected, cloned human ghrelin receptor (hGHS-R1a) and Gα16. • 2. Suspended cells incubated O/N with coelenterazine. • 3. Stimulation of hGHS-R1a activates Gα16, causing intercellular Ca2+ release which ultimately leads to the oxidation of coelenterazine and the emission of a quantitative luminescent signal. • 4. Ghrelin was used as the positive control. • 5.
# [2] = molecular target: T2, human growth hormone secretagogue receptor (hGHS-R1a) (Homo sapiens, UniProt Q92847); assay: Competitive radioligand binding assay (ghrelin receptor), [125I]-ghrelin displacement
# T2 construct: purchased PerkinElmer BioSignal #RBHGHSM, lot#1887; host or cells: HEK-293, stably transfected
# T2 sequence (Q92847 whole entry): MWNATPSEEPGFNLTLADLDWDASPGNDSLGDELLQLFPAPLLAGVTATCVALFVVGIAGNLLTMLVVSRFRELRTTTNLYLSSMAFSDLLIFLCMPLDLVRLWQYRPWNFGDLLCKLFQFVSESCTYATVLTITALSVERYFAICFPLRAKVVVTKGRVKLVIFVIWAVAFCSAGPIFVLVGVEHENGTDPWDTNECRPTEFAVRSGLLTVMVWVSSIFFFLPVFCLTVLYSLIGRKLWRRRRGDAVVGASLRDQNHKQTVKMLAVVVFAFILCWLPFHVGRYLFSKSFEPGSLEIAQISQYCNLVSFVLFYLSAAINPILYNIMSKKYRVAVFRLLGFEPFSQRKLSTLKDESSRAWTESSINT
# Description: The competitive binding assay at the human growth hormone secretagogue receptor (hGHS-R1a) was carried out analogously to assays described in the literature.
# Multiscreen Harvest plates-GF/C (Millipore, #MAHFC1H60) • 4. […] Bottom seal (Millipore, #MATAH0P00) • 7. […] Binding Buffer: 25 mM Hepes (pH 7.4), 1 mM CaCl2, 5 mM MgCl2, 2.5 mM EDTA, 0.4% BSA Assay Volumes
# Competition experiments were performed in a 300 μl filtration assay format. • 1. 220 μL of membranes diluted in binding buffer • 2. 40 μL of compound diluted in binding buffer • 3. […] Compound Handling
# Compounds were provided frozen on dry ice at a stock concentration of 10 mM diluted in 100% DMSO and stored at −80° C. until the day of testing. On the test day, compounds were allowed to thaw at rt O/N and then diluted in assay buffer according to the desired test concentrations.
# Plates were sealed with TopSeal-A, vortexed gently and incubated at rt for 30 min. The reaction was arrested by filtering samples through Multiscreen Harvest plates (pre-soaked in 0.5% polyethyleneimine) using a Tomtec Harvester, washed 9 times with 500 μL of cold 50 mM Tris-HCl (pH 7.4, 4° C.), and then plates were air-dried in a fumehood for 30 min. A bottom seal was applied to the plates prior to the addition of 25 μL of MicroScint-0 to each well. […] Results were expressed as counts per minute (cpm).
# Data were analyzed by GraphPad Prism (GraphPad Software, San Diego, Calif.) using a variable slope non-linear regression analysis.
# Compound structures for Tables 3A, 3B and 3D are presented with the various groups as defined for the general structure of formula I. For Tables 3B and 3D, in all entries, m, n and p are 0; X, Z1 and Z2 are each NH. For Table 3B, R1 is H for all entries. The tethers (T) are illustrated with the bonding to X and Z2 as indicated. The compounds themselves are shown for Table 3C.
# • 1. […] Key Aspects of Method • 1. […] Results
# [3] = tested on: gastric emptying in fasted rats; assay: Gastric emptying in fasted rats (phenol red methylcellulose meal); format: in vivo, rat (Wistar)
# Description: To examine the effects of compounds of the invention in a model for gastroparesis, compounds were evaluated for possible effects on gastric emptying in fasted rats.
# GHRP-6 and test samples were dissolved in vehicle of 9% HPBCD/0.9% NaCl. Immediately following oral administration of methylcellulose (2%) containing phenol red (0.05%) (2 mL/rat), test substances or vehicle (9% HPBCD/0.9% NaCl) were each administered intravenously (i.v.) at a dosing volume of 5 mL/kg.
# Male Wistar rats were provided by LASCO (A Charles River Licensee Corporation, Taiwan). Space allocation for 6 animals was 45×23×15 cm. Animals were housed in APEC® cages and maintained in a controlled temperature (22° C.-24° C.) and humidity (60%-80%) environment with 12 h light, 12 h dark cycles for at least one week in the laboratory prior to being used. Free access to standard lab chow for rats (Lab Diet, Rodent Diet, PMI Nutrition International, USA) and tap water was granted. All aspects of this work including housing, experimentation and disposal of animals were performed in general accordance with the Guide for the Care and Use of Laboratory Animals (National Academy Press, Washington, D.C., 1996).
# Test substances were each administered intravenously to a group of 5 O/N-fasted Wistar derived male rats weighing 200±20 g immediately after methylcellulose (2%) containing phenol red (0.05%) was administered orally at 2 mL/animal. […] Following protein precipitation by 20% trichloroacetic acid (0.5 mL) and re-alkalization of the supernatant with 0.1 N NaOH, total phenol red remaining in the stomach was determined by a colorimetric method at 560 nm. A 30 percent or more (≧30%) increase in gastric emptying, detected as the decrease in phenol red concentration in the stomach relative to the vehicle control group, is considered significant.
# • 1. […] Total phenol red remaining in the stomach was quantified by a colorimetric method at 560 nm. • 5. A >30% increase in gastric emptying, detected based on the phenol red concentration in comparison to the control group, is considered significant. […]
# [4] = from CCC[C@@H](C(=O)N(C)[C@H](C)C(=O)N[C@H](Cc1ccccc1)C(=O)O)N(C[C@@H](C)Oc1ccccc1CCCN)C(=O)OC(C)(C)C; amide bond; DEPBT; THF; 25.0 mM; 25.0 °C; 16.0 h
# [5] = molecular target: T1, human ghrelin receptor (hGHS-R1a); assay: cell-based
# Description: as §1, §2, §3, §4, §5
# Analysis and Expression of Results
# as §6, §7
# [6] = tested on: morphine-treated rats; assay: Gastric emptying and gastrointestinal transit in model of opioid-delayed gastric emptying; format: in vivo, rat (Sprague-Dawley); conditions: 3 mg/kg s.c.
# Text: 7. The Effect of Compounds of the Invention on Gastric Emptying and Gastrointestinal Transit in a Model of Opioid-Delayed Gastric Emptying
# Opioid analgesics, such as morphine, are well known to delay gastrointestinal transit which is an important side-effect for this class of drugs. The clinical term for this syndrome is opioid bowel dysfunction (OBD). Importantly, patients recovering from abdominal surgery experience post-operative ileus that is further exacerbated by concomitant opioid therapy for post-surgical pain.
# • 1. […] Methods • 1. Rats (male, Sprague-Dawley, 250-300 g) are implanted with jugular vein catheters to accommodate dosing of test articles. • 2. Overnight-fasted rats are administered morphine (3 mg/kg s.c.). • 3. […] Radioactivity (^99mTc) in each tissue isolate is measured as a means of measuring the transit of the meal. Results
# [7] = Table 3C, binding activity at the human ghrelin receptor, class symbols, read-out: Ki
# [8] = Table 4, binding at human ghrelin receptor, TFA salts unless otherwise noted, read-out: Ki
# [9] = binding activity at the human ghrelin receptor, [125I]-ghrelin displacement, hGHS-R1a/HEK-293 membranes, read-out: Ki
# [10] = [125I]-ghrelin displacement, hGHS-R1a HEK-293 membranes, read-out: Binding Activity at the Human Ghrelin Receptor (Ki)
# [11] = Table 3B, binding at human ghrelin receptor, [125I]-ghrelin displacement, read-out: Ki
# T1 sequence (Q92847 whole entry): as above
SMILES,"Ki [2, 8] [µM]","Ki [2, 9] [µM]",EC50 [5] [µM],further results
O=C1NC/C=C/c2ccccc2OCCNC2(CCCC2)C(=O)NC2(CCCC2)C(=O)N[C@H]1Cc1ccccc1 [compound 18],0.01 to 0.1,0.01 to 0.1,,"EC50 [1]: 0.001 to 0.1 µM; Ki [2, 7]: 0.01 to 0.1 µM"
CCC(C)C1NCCOc2ccccc2CCCNC(=O)C(Cc2ccc(Cl)cc2)NC(=O)C(C)N(C)C1=O (stereo not shown) [compound 25],,,,"EC50 [1]: 0.001 to 0.1 µM; gastric emptying ([3]; 30 μg/kg): demonstrated gastric emptying; increase in gastric emptying relative to the vehicle control group ([3]; 100 μg/kg i.v., fasted rats, 15 min): 39%"
CCC[C@H]1C(=O)N(C)[C@H](C)C(=O)N[C@H](Cc2ccccc2)C(=O)NCCCc2ccccc2O[C@H](C)CN1C(=O)OC(C)(C)C,,,,"ring closure, yield of all isomers [4]: 80%"
CCC(C)C1NCCOc2ccc(C(=O)O)cc2CCCNC(=O)C(Cc2ccccc2)NC(=O)C(C)N(C)C1=O (stereo not shown) [compound 197],0.1 to 1,,> 1,"Ki [2, 10]: 0.1 to 10 µM"
CCC(C)C1NCc2ccccc2CCCCCNC(=O)C(Cc2ccccc2)NC(=O)C(C)N(C)C1=O (stereo not shown) [compound 38],0.01 to 0.1,0.01 to 0.1,0.1 to 1,
COc1ccc(CC2NC(=O)C3(CCCC3)NC(=O)C(CC(C)C)NCCOc3ccccc3C=CCNC2=O)cc1 (stereo not shown) [compound 156],0.01 to 0.1,0.01 to 0.1,0.001 to 0.1,
C[C@H]1NC(=O)C2(CCCC2)NCCOc2ccccc2C=CCNC(=O)[C@H](Cc2cccc(Cl)c2)NC1=O (stereo in doubt) [compound 351],0.01 to 0.1,,,"EC50 [1]: 0.001 to 0.1 µM; Ki [2, 7]: 0.01 to 0.1 µM"
CCC(C)C1NCc2ccccc2CC=CCNC(=O)C(Cc2ccccc2)NC(=O)C(C)N(C)C1=O (stereo not shown) [compound 193],0.1 to 1,,0.1 to 1,"Ki [2, 10]: 0.1 to 10 µM"
CCC(C)C1NCc2ccccc2CC=CCCNC(=O)C(Cc2ccccc2)NC(=O)C(C)N(C)C1=O (stereo not shown) [compound 195],0.01 to 0.1,,0.001 to 0.1,"Ki [2, 10]: 0.01 to 0.1 µM"
CCC(C)C1NCCOc2cccnc2CCCNC(=O)C(Cc2ccccc2)NC(=O)C(C)N(C)C1=O (stereo not shown) [compound 177],0.01 to 0.1,0.01 to 0.1,0.001 to 0.1,
CCC(C)C1NCCCc2ccccc2C=CCCNC(=O)C(Cc2ccccc2)NC(=O)C(C)N(C)C1=O (stereo not shown) [compound 191],0.1 to 1,,0.1 to 1,"Ki [2, 10]: 0.1 to 10 µM"
CCC(C)C1NCCOc2ccccc2CCCNC(=O)C(CC(C)C)NC(=O)C(C)N(C)C1=O (stereo not shown) [compound 176],0.01 to 0.1,0.01 to 0.1,0.001 to 0.1,
CN1CC[C@]23c4c5ccc(O)c4O[C@H]2[C@@H](O)C=C[C@H]3[C@H]1C5 [Morphine],,,,gastric emptying and intestinal transit [6]: significantly delayed gastric emptying and intestinal transit
CCC(C)C1NCCOc2ccccc2C=CCNC(=O)C(Cc2ccccc2)NC(=O)C(C)N(C)C1=O (stereo not shown) [compound 40],0.0001 to 0.01,0.0001 to 0.01,0.001 to 0.1,
CCC(C)C1NCCCc2ccccc2CCCCNC(=O)C(Cc2ccccc2)NC(=O)C(C)N(C)C1=O (stereo not shown) [compound 192],0.01 to 0.1,,0.1 to 1,"Ki [2, 10]: 0.01 to 0.1 µM"
CCC(C)C1NCCOc2ccc(F)cc2CCCNC(=O)C(Cc2cccc(Cl)c2)NC(=O)C2(CCCC2)NC1=O (stereo not shown) [compound 382],0.01 to 0.1,,0.1 to 1,"Ki [2, 11]: < 0.1 µM"
CC1C(=O)NC(Cc2ccc(F)cc2)C(=O)NCCCc2cc(NS(C)(=O)=O)ccc2OCCNC(C2CC2)C(=O)N1C (stereo not shown) [compound 374],0.01 to 0.1,,0.001 to 0.1,"Ki [2, 11]: < 0.1 µM"
CCCCC1NCCOc2ccccc2CCCNC(=O)C(Cc2ccccc2)NC(=O)CN(C)C1=O (stereo not shown) [Compound 1],0.01 to 0.1,0.01 to 0.1,0.1 to 1,
CCCC1NCCOc2ccccc2C=CCNC(=O)C(Cc2ccccc2)NC(=O)C(C)N(C)C1=O (stereo not shown) [compound 39],0.0001 to 0.01,0.01 to 0.1,0.1 to 1,
"CCN(CC)CCNC(=O)c1cc(Cl)c(N)cc1OC [metoclopramide, Metoclopramide, reference compound]",,,,"gastric emptying of a solid meal in naïve rat ([3]; i.v. immediately after meal, 15 min): significant gastric emptying"
CCCC1NCCOc2ccccc2CCCNC(=O)C(Cc2ccc(O)cc2)NC(=O)CN(C)C1=O (stereo not shown) [compound 7],0.1 to 1,0.1 to 10,0.001 to 0.1,
CC1COc2ccccc2CCCNC(=O)C(Cc2ccc(F)cc2)NC(=O)C(C)N(C)C(=O)C(C2CC2)N1 (stereo not shown) [compound 394],0.0001 to 0.01,,0.1 to 1,"Ki [2, 11]: 0.0001 to 0.01 µM"
CC(C)C1NCCOc2ccccc2C=CCNC(=O)C(Cc2ccccc2)NC(=O)C2(CCOCC2)NC1=O (stereo not shown) [compound 140],0.1 to 1,0.1 to 10,0.1 to 1,
